US9718834B2, “Processes and intermediates for making a JAK inhibitor” (Incyte Corporation, priority 2011, dated 2017)
pIC50: −log10 of the molar value.

Biological target: T1, human JAK1 (a.a. 837-1142) (Homo sapiens, UniProt P23458)
T1 construct: human JAK1 (a.a. 837-1142); His tag (N); made in house; host or cells: insect cells (baculovirus)
Assay: In vitro JAK kinase assay (HTRF, phosphorylation of biotinylated peptide), JAK1
Format: biochemical
Conditions: measured at 1 mM ATP
Protocol: The compound of Formula I herein was tested for inhibitory activity of JAK targets according to the following in vitro assay described in Park et al., Analytical Biochemistry 1999, 269, 94-104. The catalytic domains of human JAK1 (a.a. 837-1142) and JAK2 (a.a. 828-1132) with an N-terminal His tag were expressed using baculovirus in insect cells and purified. The catalytic activity of JAK1 and JAK2 was assayed by measuring the phosphorylation of a biotinylated peptide. The phosphorylated peptide was detected by homogenous time resolved fluorescence (HTRF). IC50s of compounds were measured for each kinase in the 40 microL reactions that contain the enzyme, ATP and 500 nM peptide in 50 mM Tris (pH 7.8) buffer with 100 mM NaCl, 5 mM DTT, and 0.1 mg/mL (0.01%) BSA. For the 1 mM IC50 measurements, ATP concentration in the reactions was 1 mM. Reactions were carried out at room temperature for 1 hr and then stopped with 20 μL 45 mM EDTA, 300 nM SA-APC, 6 nM Eu-Py20 in assay buffer (Perkin Elmer, Boston, Mass.). Binding to the Europium labeled antibody took place for 40 minutes and HTRF signal was measured on a Fusion plate reader (Perkin Elmer, Boston, Mass.).

T1 sequence (P23458 849-1154): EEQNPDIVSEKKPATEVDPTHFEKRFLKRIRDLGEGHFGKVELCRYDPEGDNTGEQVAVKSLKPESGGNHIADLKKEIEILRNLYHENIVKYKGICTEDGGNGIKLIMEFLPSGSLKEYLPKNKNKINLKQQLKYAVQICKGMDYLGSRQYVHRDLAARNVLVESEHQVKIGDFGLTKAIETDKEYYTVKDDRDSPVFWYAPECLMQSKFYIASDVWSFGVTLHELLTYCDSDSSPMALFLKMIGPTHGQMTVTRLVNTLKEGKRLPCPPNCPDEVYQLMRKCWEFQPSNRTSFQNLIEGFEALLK

- pIC50: ≥ 8.30
SMILES: N#CCC1(n2cc(-c3ncnc4[nH]ccc34)cn2)CN(C2CCN(C(=O)c3ccnc(C(F)(F)F)c3F)CC2)C1 [Example 1, {1-{1-[3-fluoro-2-(trifluoromethyl)isonicotinoyl]piperidin-4-yl}-3-[4-(7H-pyrrolo[2,3-d]pyrimidin-4-yl)-1H-pyrazol-1-yl]azetidin-3-yl}acetonitrile]
